Assays:
powdery mildew = assay: Test Example 9: control test of wheat powdery mildew, cup in greenhouse, inoculated, Norin No. 61 (Tables 10 to 14); assay type: in vivo, Blumeria graminis; set-up: key to Degree of Disease Occurrence: Σ(index×leaves)/(4×leaves investigated)×100; 0 = no disease, 100 = max
Method: (§1) Degree of Disease Occurrence=Σ(Index×Number of Leaves of Index)/(4×Number of Investigated Leaves)×100 (1)
Seed of wheat (variety: Norin No. 61) was used, and 100 ml of suspension waters each containing the compound shown in Table 10 at an amount shown in […] (synthesis was performed in accordance with a known method, a solution dissolved in DMSO or formulated 10% wettable powder was used) were prepared. The seed having a mass of 1 kg of wheat was mixed into the suspension water with a chemical treated amount shown in Table 10, and air-dried, and then, 5 seeds were sown in a plastic cup having a diameter of 6 cm containing river sand and managed in a greenhouse. In Comparative Examples, 20 ml of the suspension water of an active ingredient, which had been adjusted to have a concentration shown in Table 10, was sprayed in a frame of 45 cm×45 cm in which a pot of wheat seedlings was placed (corresponding to 1000 L/ha) 14 days after seeding. On day 14 after seeding, conidiospores of powdery mildew were sifted over leaves of wheat seedlings and inoculated onto the leaves (after the sprayed liquid was dried in the case of Comparative Examples), a lesion area ratio of powdery mildew in a first leaf was investigated 21 days after seeding according to the criteria in Table 1, and the degree of disease occurrence was calculated by the above calculation formula (1).

septoria leaf blotch = assay: Test Example 10: control test of septoria leaf blotch of wheat, cup in greenhouse, inoculated, variety ARKEOS (Tables 15 to 19); assay type: in vivo, Septoria tritici
Method: as §1
Seed of wheat (variety: ARKEOS) was used, and 100 ml of suspension waters each containing the compound shown in Table 15 at an amount shown in Table 15 (synthesis was performed in accordance with a known method, a liquid dissolved in a small amount of DMSO or formulated 10% wettable powder was used) were prepared. Seed having a mass of 1 kg was mixed into the suspension water with a rate shown in Examples of Table 15, and air-dried, and then, 5 seeds were sown in a plastic cup having a diameter of 6 cm containing mixed soil of river sand and horticultural soil and managed in a greenhouse. In Comparative Examples, 20 ml of suspension water of an active ingredient, which had been adjusted to have a concentration shown in Table 15 to 19, was sprayed in a frame of 45 cm×45 cm in which a pot of wheat seedlings was placed (corresponding to 1000 L/ha) 14 days after seeding. On day 14 after seeding, a spore suspension in which conidiospores of septoria leaf blotch are suspended was sprayed and inoculated on leaves of wheat seedlings (after the sprayed liquid was dried in the case of Comparative Examples), a lesion area ratio of septoria leaf blotch in a second leaf was investigated approximately 35 days after seeding according to the criteria in Table 1, and the degree of disease occurrence was calculated by the above calculation formula (1).

[1] = Table 14, Foliage Treatment, spray 10 ppm suspension water (corresponding to 10 g/ha) 14 days after seeding, untreated 70.0
[2] = Table 14, Foliage Treatment, spray 10 ppm suspension water (corresponding to 10 g/ha) 14 days after seeding, untreated 100.0
[3] = Table 14, Foliage Treatment, spray 100 ppm suspension water (corresponding to 100 g/ha) 14 days after seeding, untreated 70.0
[4] = Table 14, Foliage Treatment, spray 100 ppm suspension water (corresponding to 100 g/ha) 14 days after seeding, untreated 100.0
[5] = Table 14, Seed Treatment, 0.1 g/Seed 1 kg (corresponding to 10 g/ha), first leaf, 21 days after seeding, untreated 70.0
[6] = Table 14, Seed Treatment, 0.1 g/Seed 1 kg (corresponding to 10 g/ha), first leaf, 21 days after seeding, untreated 100.0
[7] = Table 14, Seed Treatment, 1 g/Seed 1 kg (corresponding to 100 g/ha), first leaf, 21 days after seeding, untreated 70.0
[8] = Table 14, Seed Treatment, 1 g/Seed 1 kg (corresponding to 100 g/ha), first leaf, 21 days after seeding, untreated 100.0
[9] = Table 19, Foliage Treatment, spray 50 ppm suspension water (corresponding to 50 g/ha) 14 days after seeding, untreated 45.0
[10] = Table 19, Foliage Treatment, spray 50 ppm suspension water (corresponding to 50 g/ha) 14 days after seeding, untreated 98.0
[11] = Table 19, Seed Treatment, 0.5 g/Seed 1 kg (corresponding to 50 g/ha), untreated 45.0
[12] = Table 19, Seed Treatment, 0.5 g/Seed 1 kg (corresponding to 50 g/ha), untreated 98.0
[13] = Table 12 run (different day), Foliage Treatment, spray 5 ppm (5 g/ha)
[14] = Table 12 run (different day), Foliage Treatment, spray 10 ppm (10 g/ha)
[15] = Table 12 run (different day), Foliage Treatment, spray 50 ppm (50 g/ha)
[16] = Table 12 run (different day), Seed Treatment 0.05 g/Seed 1 kg (5 g/ha)
[17] = Table 12 run (different day), Seed Treatment 0.1 g/Seed 1 kg (10 g/ha)
[18] = Table 12 run (different day), Seed Treatment 0.5 g/Seed 1 kg (50 g/ha)
[19] = Table 14, Foliage Treatment, spray 50 ppm suspension water (corresponding to 50 g/ha) 14 days after seeding, untreated 70.0
[20] = Table 14, Foliage Treatment, spray 50 ppm suspension water (corresponding to 50 g/ha) 14 days after seeding, untreated 100.0
[21] = Table 14, Seed Treatment, 0.5 g/Seed 1 kg (corresponding to 50 g/ha), first leaf, 21 days after seeding, untreated 70.0
[22] = Table 14, Seed Treatment, 0.5 g/Seed 1 kg (corresponding to 50 g/ha), first leaf, 21 days after seeding, untreated 100.0
[23] = Table 18, Foliage Treatment, spray 5 ppm (5 g/ha)
[24] = Table 18, Foliage Treatment, spray 10 ppm (10 g/ha)
[25] = Table 18, Seed Treatment 0.05 g/Seed 1 kg (5 g/ha)
[26] = Table 18, Seed Treatment 0.1 g/Seed 1 kg (10 g/ha)
[27] = Table 18, Foliage Treatment, spray 50 ppm (50 g/ha)
[28] = Table 18, Seed Treatment 0.5 g/Seed 1 kg (50 g/ha)
[29] = Table 13 run (different day), Foliage Treatment, spray 5 ppm (5 g/ha)
[30] = Table 13 run (different day), Foliage Treatment, spray 10 ppm (10 g/ha)
[31] = Table 13 run (different day), Foliage Treatment, spray 50 ppm (50 g/ha)
[32] = Table 13 run (different day), Seed Treatment 0.05 g/Seed 1 kg (5 g/ha)
[33] = Table 13 run (different day), Seed Treatment 0.1 g/Seed 1 kg (10 g/ha)
[34] = Table 13 run (different day), Seed Treatment 0.5 g/Seed 1 kg (50 g/ha)

SMILES | Degree of Disease Occurrence (powdery mildew; [1]) | Disease Leaf Rate (%) (powdery mildew; [2]) | Degree of Disease Occurrence (powdery mildew; [3]) | Disease Leaf Rate (%) (powdery mildew; [4]) | Degree of Disease Occurrence (powdery mildew; [5]) | Disease Leaf Rate (%) (powdery mildew; [6]) | Degree of Disease Occurrence (powdery mildew; [7]) | Disease Leaf Rate (%) (powdery mildew; [8]) | Degree of Disease Occurrence (septoria leaf blotch; [9]) | Disease Leaf Rate (%) (septoria leaf blotch; [10]) | Degree of Disease Occurrence (septoria leaf blotch; [11]) | Disease Leaf Rate (%) (septoria leaf blotch; [12]) | Degree of Disease Occurrence (powdery mildew; [14]) | Disease Leaf Rate (%) (powdery mildew; [14]) | Degree of Disease Occurrence (powdery mildew; [17]) | Disease Leaf Rate (%) (powdery mildew; [17]) | Degree of Disease Occurrence (powdery mildew; [19]) | Disease Leaf Rate (%) (powdery mildew; [20]) | Degree of Disease Occurrence (powdery mildew; [21]) | Disease Leaf Rate (%) (powdery mildew; [22]) | also measured
N=C(OCc1ccccc1)c1snc(Cl)c1Cl [Compound (12)] | 56.9 | 94.4% | 47.9 | 93.3% | 21.3 | 75.8% | 34.1 | 87.5% | 39.2 | 93.6% | 10.3 | 41.3% |  |  |  |  |  |  |  |  | Degree of Disease Occurrence (septoria leaf blotch; Table 19, Foliage Treatment, spray 10 ppm suspension water (corresponding to 10 g/ha) 14 days after seeding, untreated 45.0): 53.3; Disease Leaf Rate (%) (septoria leaf blotch; Table 19, Foliage Treatment, spray 10 ppm suspension water (corresponding to 10 g/ha) 14 days after seeding, untreated 98.0): 99.3%; Degree of Disease Occurrence (septoria leaf blotch; Table 19, Seed Treatment, 0.1 g/Seed 1 kg (corresponding to 10 g/ha), untreated 45.0): 26.3; Disease Leaf Rate (%) (septoria leaf blotch; Table 19, Seed Treatment, 0.1 g/Seed 1 kg (corresponding to 10 g/ha), untreated 98.0): 75.0%
N=C(N)c1snc(Cl)c1Cl [Compound (13)] | 35.6 | 76.7% |  |  | 17.2 | 68.8% |  |  |  |  |  |  | 36.7 | 53.3% | 7.5 | 20.0% | 31.3 | 83.3% | 13.9 | 44.4% | Degree of Disease Occurrence (powdery mildew; [13]): 60.0; Disease Leaf Rate (%) (powdery mildew; [13]): 100.0%; Degree of Disease Occurrence (powdery mildew; [15]): 21.7; Disease Leaf Rate (%) (powdery mildew; [15]): 53.3%; Degree of Disease Occurrence (powdery mildew; [16]): 19.4; Disease Leaf Rate (%) (powdery mildew; [16]): 53.3%; Degree of Disease Occurrence (powdery mildew; [18]): 9.7; Disease Leaf Rate (%) (powdery mildew; [18]): 38.9%; Degree of Disease Occurrence (septoria leaf blotch; [23]): 60.0; Disease Leaf Rate (%) (septoria leaf blotch; [23]): 100.0%; Degree of Disease Occurrence (septoria leaf blotch; [24]): 68.3; Disease Leaf Rate (%) (septoria leaf blotch; [24]): 100.0%; Degree of Disease Occurrence (septoria leaf blotch; [25]): 28.8; Disease Leaf Rate (%) (septoria leaf blotch; [25]): 95.0%; Degree of Disease Occurrence (septoria leaf blotch; [26]): 42.5; Disease Leaf Rate (%) (septoria leaf blotch; [26]): 100.0%
N=C(N)c1snc(Cl)c1Cl [Compound (14)] |  |  | 14.4 | 44.4% |  |  | 11.3 | 40.0% |  |  |  |  |  |  |  |  | 18.3 | 61.1% | 7.8 | 25.0% | Degree of Disease Occurrence (septoria leaf blotch; [27]): 48.3; Disease Leaf Rate (%) (septoria leaf blotch; [27]): 100.0%; Degree of Disease Occurrence (septoria leaf blotch; [28]): 42.5; Disease Leaf Rate (%) (septoria leaf blotch; [28]): 90.0%
CCNC(=N)c1snc(Cl)c1Cl [Compound (15)] |  |  |  |  |  |  |  |  | 39.2 | 93.6% | 10.3 | 41.3% | 80.0 | 93.3% | 31.3 | 60.0% | 47.9 | 100.0% | 13.1 | 37.5% | Degree of Disease Occurrence (powdery mildew; [13]): 66.7; Disease Leaf Rate (%) (powdery mildew; [13]): 100.0%; Degree of Disease Occurrence (powdery mildew; [15]): 38.3; Disease Leaf Rate (%) (powdery mildew; [15]): 60.0%; Degree of Disease Occurrence (powdery mildew; [16]): 40.8; Disease Leaf Rate (%) (powdery mildew; [16]): 70.0%; Degree of Disease Occurrence (powdery mildew; [18]): 11.9; Disease Leaf Rate (%) (powdery mildew; [18]): 34.4%
N=C(Nc1ccccc1)c1snc(Cl)c1Cl [Compound (16)] | 32.6 | 80.6% | 29.2 | 80.6% | 15.2 | 60.8% | 18.2 | 50.0% | 38.3 | 99.7% | 29.4 | 82.5% | 63.3 | 100.0% | 22.5 | 65.0% | 19.6 | 53.3% | 8.9 | 35.4% | Degree of Disease Occurrence (powdery mildew; [15]): 43.3; Disease Leaf Rate (%) (powdery mildew; [15]): 80.0%; Degree of Disease Occurrence (powdery mildew; [18]): 6.3; Disease Leaf Rate (%) (powdery mildew; [18]): 16.7%
N/C(=N\O)c1snc(Cl)c1Cl [Compound (17)] |  |  |  |  |  |  |  |  | 38.3 | 99.7% | 29.4 | 82.5% | 43.3 | 80.0% | 10.4 | 25.0% |  |  |  |  | Degree of Disease Occurrence (powdery mildew; [13]): 45.0; Disease Leaf Rate (%) (powdery mildew; [13]): 93.3%; Degree of Disease Occurrence (powdery mildew; [16]): 23.3; Disease Leaf Rate (%) (powdery mildew; [16]): 66.7%; Degree of Disease Occurrence (powdery mildew; [29]): 85.8; Disease Leaf Rate (%) (powdery mildew; [29]): 100.0%; Degree of Disease Occurrence (powdery mildew; [30]): 62.4; Disease Leaf Rate (%) (powdery mildew; [30]): 95.8%; Degree of Disease Occurrence (powdery mildew; [31]): 42.4; Disease Leaf Rate (%) (powdery mildew; [31]): 90.6%; Degree of Disease Occurrence (powdery mildew; [32]): 66.7; Disease Leaf Rate (%) (powdery mildew; [32]): 100.0%; Degree of Disease Occurrence (powdery mildew; [33]): 47.9; Disease Leaf Rate (%) (powdery mildew; [33]): 100.0%; Degree of Disease Occurrence (powdery mildew; [34]): 33.1; Disease Leaf Rate (%) (powdery mildew; [34]): 83.8%; Degree of Disease Occurrence (septoria leaf blotch; Table 19, Foliage Treatment, spray 100 ppm suspension water (corresponding to 100 g/ha) 14 days after seeding, untreated 45.0): 36.7; Disease Leaf Rate (%) (septoria leaf blotch; Table 19, Foliage Treatment, spray 100 ppm suspension water (corresponding to 100 g/ha) 14 days after seeding, untreated 98.0): 94.9%; Degree of Disease Occurrence (septoria leaf blotch; Table 19, Seed Treatment, 1 g/Seed 1 kg (corresponding to 100 g/ha), untreated 45.0): 20.9; Disease Leaf Rate (%) (septoria leaf blotch; Table 19, Seed Treatment, 1 g/Seed 1 kg (corresponding to 100 g/ha), untreated 98.0): 78.8%
